Experimental data reported in US20260234144A1 (TAY THERAPEUTICS LIMITED, priority 2023, published 2026).

Tested on: R223X stop codon in the mutated luciferase gene, ADXC8 luciferase reporter cell line
Experiment: cells
Assay type: cell-based
Details: ADXC8 cells, 24 hours; for EC (100% of 200 uM G418 response) / Emax: 24 h; for EC (100% of 200 uM G418 response): read-out: pC100%, negative logarithm of the concentration giving the same response as 200 μM G418; for Emax: read-out: Fold Over Control, maximum fold response relative to 200 μM G418

SMILES	EC (100% of 200 uM G418 response)	Emax	pC100% (negative logarithm of the concentration giving the same response as 200 μM G418)
CNc1nc(NC2CN(C)CC23CC3)nc2nc(C)cc(C)c12 (stereo not drawn) [Example 408]	1 to 10 µM	–	–
CN1CCC(Nc2nc(N)c3ccc(-c4cccc(C(=O)O)c4)nc3n2)CC1 [Example 83]	> 100 µM	0 to 100%	–
CNc1cc(N[C@@H]2CCN(C)C2)nc2nc3c(c(C)c12)CCC3 [Example 258, (R)—N^4,5-dimethyl-N^2-(1-methylpyrrolidin-3-yl)-7,8-dihydro-6H-cyclopenta[b][1,8]naphthyridine-2,4-diamine]	0.1 to 1 µM	100 to 3000%	–
Cc1cc(C)c2c(N)nc(NC3CCN(Cc4ccncc4C(F)F)CC3)nc2n1 [Example 533]	10 to 100 µM	100 to 3000%	–
Cc1cc(C)c2c(N)nc(NC3CCN(Cc4ccc(C(F)F)cc4)CC3)nc2n1 [Example 485]	1 to 10 µM	100 to 3000%	–
Cc1cc(C)c2c(N)nc(NC3CCN(Cc4cnn(C)c4)CC3)nc2n1 [Example 568]	1 to 10 µM	100 to 3000%	–
CNc1nc(N[C@H]2CN(C3CC3)C[C@@H]2O)nc2nc(C)cc(C)c12 [Example 612]	10 to 100 µM	100 to 3000%	–
Cc1cc(C(C)C)nc2nc(NC3CCN(C)CC3)nc(N)c12 [Example 602]	1 to 10 µM	–	–
CN1CCC(Nc2nc(N)c3ccc(-c4ccccc4N)nc3n2)CC1 [Example 113]	10 to 100 µM	100 to 3000%	–
Cc1cc(C)c2c(N)nc(NC3COC4(CNC4)C3)nc2n1 (stereo not drawn) [Example 210]	1 to 10 µM	100 to 3000%	–
COCCN1CCC(Nc2nc(N)c3c(C)cc(C)nc3n2)CC1 [Example 172]	10 to 100 µM	100 to 3000%	–
CC#Cc1cnc2nc(NC3CCN(C)CC3)nc(N)c2c1 [Example 42, N^2-(1-methylpiperidin-4-yl)-6-(prop-1-yn-1-yl)pyrido[2,3-d]pyrimidine-2,4-diamine]	> 100 µM	0 to 100%	–
Cc1cc(C)c2c(N)nc(NCCCN3CCC3)nc2n1 [Example 191]	10 to 100 µM	100 to 3000%	–
Cc1cc(C)c2c(N)nc(NC3CCN(Cc4c[nH]cn4)CC3)nc2n1 [Example 491]	10 to 100 µM	100 to 3000%	–
CC(=O)Nc1ccc(-c2ccc3c(N)nc(NC4CCN(C)CC4)nc3n2)cc1 [Example 73]	> 100 µM	0 to 100%	–
Cc1cc(C)c2c(N)nc(NCCN(C)c3ccccc3)nc2n1 [Example 143]	> 31.6 µM	0 to 100%	–
CNc1nc(N[C@@H]2C[C@H](C)N(C)C2)nc2nc(C)cc(C)c12 [Example 367]	1 to 10 µM	–	–
Cc1cc(C)c2c(N)nc(NC[C@@H]3CCCN3)nc2n1 [Example 182]	> 31.6 µM	0 to 100%	–
Cc1cc(C)c2c(N)nc(NCCN3CC4(CCCO4)C3)nc2n1 [Example 167]	> 31.6 µM	0 to 100%	–
CNc1nc(N[C@H]2CNCC[C@H]2O)nc2nc(C)cc(C)c12 [Example 606]	1 to 10 µM	–	–
CC(C)c1ccnc2nc(NC3CCN(C)CC3)nc(N)c12 [Example 246, 5-isopropyl-N^2-(1-methylpiperidin-4-yl)pyrido[2,3-d]pyrimidine-2,4-diamine]	> 100 µM	0 to 100%	–

SMILES	EC (100% of 200 uM G418 response)	Emax	pC100% (negative logarithm of the concentration giving the same response as 200 μM G418)
CSc1cccc(-c2ccc3c(N)nc(NC4CCN(C)CC4)nc3n2)c1 [Example 99]	0.1 to 1 µM	–	–
COC(=O)c1cnc2nc(NC3CCN(C)CC3)nc(N)c2c1 [Example 122, methyl 4-amino-2-[(1-methylpiperidin-4-yl)amino]pyrido[2,3-d]pyrimidine-6-carboxylate]	> 100 µM	0 to 100%	–
Cc1c2c(nc3nc(NC4CCN(Cc5ccccc5NS(C)(=O)=O)CC4)nc(N)c13)CCC2 [Example 671]	1 to 10 µM	100 to 3000%	–
Cc1cc(C)c2c(N)nc(NC3CCN(Cc4ccc(C#N)cc4Br)CC3)nc2n1 [Example 561]	1 to 10 µM	100 to 3000%	–
CNc1nc(N[C@H]2C[C@H](C)N(C)C2)nc2nc(C)cc(C)c12 [Example 373]	1 to 10 µM	100 to 3000%	–
CN1CCC(Nc2nc(N)c3ccc(-c4ccccc4C#N)nc3n2)CC1 [Example 118]	10 to 100 µM	–	–
Cc1cc(C)c2c(N)nc(N[C@@H]3CCN(Cc4ccc(C#N)cc4)C[C@@H]3O)nc2n1 [Example 562]	1 to 10 µM	100 to 3000%	–
Cc1cc(C)c2c(N)nc(N[C@H]3CN[C@H](C)C3)nc2n1 [Example 209]	1 to 10 µM	100 to 3000%	–
Cc1cc(C)c2c(N)nc(N[C@H]3CCN(Cc4ccc(C#N)cc4)C[C@@H]3F)nc2n1 [Example 574]	10 to 100 µM	100 to 3000%	–
CN(C)Cc1ccc(-c2ccc3c(N)nc(NC4CCN(C)CC4)nc3n2)cc1 [Example 105]	10 to 100 µM	100 to 3000%	–
Cc1cc(C)c2c(N)nc(NC3CCN(Cc4ccccc4F)CC3)nc2n1 [Example 465]	1 to 10 µM	100 to 3000%	–
CN1CCC(Nc2nc(N)c3ccc(-c4cccc(S(N)(=O)=O)c4)nc3n2)CC1 [Example 55]	10 to 100 µM	100 to 3000%	–
CN1CCC(Nc2nc(N)c3ccc(-c4ccc(O)cc4)nc3n2)CC1 [Example 102]	10 to 100 µM	100 to 3000%	–
COC(C)c1cnc2nc(NC3CCN(C)CC3)nc(N)c2c1 (stereo not drawn) [Example 284]	> 31.6 µM	0 to 100%	–
CNc1cc(N[C@H]2CNC[C@@H]2O)nc2nc3c(c(C)c12)CCC3 [Example 635]	1 to 10 µM	–	–
CSc1ccccc1-c1ccc2c(N)nc(NC3CCN(C)CC3)nc2n1 [Example 82]	1 to 10 µM	–	–
[2H]C([2H])([2H])Nc1nc(NC2CCN(C)CC2)nc2nc(C)cc(C)c12 [Example 328]	1 to 10 µM	100 to 3000%	–
Cc1cc(C)c2c(N)nc(N[C@H]3CNC[C@@H]3O)nc2n1 [Example 293]	0.1 to 1 µM	–	–
CC(C)c1ccc2c(N)nc(NC3CCN(C)CC3)nc2n1 [Example 239, 7-isopropyl-N^2-(1-methylpiperidin-4-yl)pyrido[2,3-d]pyrimidine-2,4-diamine]	1 to 10 µM	100 to 3000%	–
CN1CCC(Nc2nc(N)c3cc(-c4cnn(C)c4)cnc3n2)CC1 [Example 679]	> 100 µM	0 to 100%	–
Cc1cc(C)c2c(N)nc(NC3CCN(Cc4cccc(C(N)=O)c4)CC3)nc2n1 [Example 484]	10 to 100 µM	100 to 3000%	–

SMILES	EC (100% of 200 uM G418 response)	Emax	pC100% (negative logarithm of the concentration giving the same response as 200 μM G418)
Cc1cc(C)c2c(N)nc(NCCCN3CC(F)C3)nc2n1 [Example 186]	10 to 100 µM	100 to 3000%	–
Cc1cc(C)c2c(N)nc(N[C@H]3CCNC3)nc2n1 [Example 292]	1 to 10 µM	100 to 3000%	–
CN1CCC(Nc2nc(N)c3ccc(-c4cccnc4)nc3n2)CC1 [Example 25, N^2-(1-methylpiperidin-4-yl)-7-(pyridin-3-yl)pyrido[2,3-d]pyrimidine-2,4-diamine]	10 to 100 µM	100 to 3000%	–
CNc1nc(NC2C3CCC2CN(C(C)C)C3)nc2nc(C)cc(C)c12 (single isomer, unassigned) [Example 435]	–	100 to 3000%	++ (pC100% > 5.0 ≤ 6.0)
CNc1nc(N[C@H]2CN[C@@H](CO)C2)nc2nc(C)cc(C)c12 [Example 411]	1 to 10 µM	–	–
CNc1nc(NC2CCNCC2)nc2nc(C)cc(C)c12 [Example 588]	0.1 to 1 µM	–	–
CNc1nc(NC2CCN(Cc3ccc(C#N)cc3)CC2)nc2nc(C)cc(C)c12 [Example 580]	1 to 10 µM	100 to 3000%	–
Cc1nc2nc(NC3CCNCC3)nc(N)c2c2c1CCC2 [Example 556]	0.1 to 1 µM	100 to 3000%	–
CNc1cc(N[C@H]2CNC[C@H]2OC)nc2nc3c(c(C)c12)CCC3 [Example 617]	1 to 10 µM	100 to 3000%	–
CN1CCC(Nc2nc(N)c3ccc(OC4CCC4)nc3n2)CC1 [Example 33, 7-cyclobutoxy-N^2-(1-methylpiperidin-4-yl)pyrido[2,3-d]pyrimidine-2,4-diamine]	10 to 100 µM	100 to 3000%	–
Cc1cc(C)c2c(NC3CCC3)nc(N[C@@H]3CCNC3)nc2n1 [Example 333]	> 31.6 µM	0 to 100%	–
Cc1cc(C)c2c(N)nc(N[C@@H]3CCCCNC3)nc2n1 [Example 313]	1 to 10 µM	100 to 3000%	–
CN1CCC(Nc2nc(N)c3ccc(-c4ccccc4N(C)C)nc3n2)CC1 [Example 72]	> 100 µM	0 to 100%	–
CC(=O)Nc1cccc(-c2ccc3c(N)nc(NC4CCN(C)CC4)nc3n2)c1 [Example 64]	> 100 µM	0 to 100%	–
Cc1c2c(nc3nc(NC4CCN(Cc5cn[nH]c5)CC4)nc(N)c13)CCC2 [Example 661]	1 to 10 µM	100 to 3000%	–
CNC(=O)c1ccc(-c2ccc3c(N)nc(NC4CCN(C)CC4)nc3n2)cc1 [Example 77]	> 100 µM	0 to 100%	–
Cc1c2c(nc3nc(NC4CCNCC4)nc(NCCO)c13)CCC2 [Example 510, 2-((5-methyl-2-(piperidin-4-ylamino)-7,8-dihydro-6H-cyclopenta[5,6]pyrido[2,3-d]pyrimidin-4-yl)amino)ethan-1-ol]	0.1 to 1 µM	100 to 3000%	–
Cc1cc(C)c2c(N)nc(NC3CC4(CCNCC4)C3)nc2n1 [Example 200]	> 31.6 µM	0 to 100%	–
Cc1ccnc2nc(NC3CCN(C)CC3)nc(N)c12 [Example 2, 5-methyl-N^2-(1-methylpiperidin-4-yl)pyrido[2,3-d]pyrimidine-2,4-diamine]	10 to 100 µM	100 to 3000%	–
